Values after ≈ are worked out from the molar mass of the structure shown. Values joined by “and” are separate entries in the source; they are usually repeats but may differ in a detail not shown here. Equal values may be shown once.
What follows are compounds tested on Streptococcus pneumoniae (assay: Minimum inhibitory concentration required for primary screening against in-house strain of Streptococcus pneumoniae tested in vitro; Range- 0.5-1).
Type: functional
Compound `CC(C)(C)[C@H](NC(=O)[C@H](CC1CCCC1)CN(O)C=O)C(=O)c1ccc(N2CCN(CCO)CC2)c(F)c1` has an MIC of less than 1 µg/mL.
Work on `CC(C)(C)[C@H](NC(=O)[C@H](CC1CCCC1)CN(O)C=O)C(=O)c1cc(F)c(F)cc1N1CCN(CCO)CC1` yielded an MIC of less than 1 µg/mL.

The compounds below were run on Haemophilus influenzae (assay: Minimum inhibitory concentration required for primary screening against in-house strain of Haemophilus influenzae tested in vitro; Range- 0.25-2).
Type: functional
For `CC(C)(C)[C@H](NC(=O)[C@H](CC1CCCC1)CN(O)C=O)C(=O)c1ccc(N2CCN(CCO)CC2)cc1`, the MIC was less than 2 µg/mL.
`CC(C)(C)[C@H](NC(=O)[C@H](CC1CCCC1)CN(O)C=O)C(=O)c1cc(F)c(F)cc1N1CCC(O)CC1` showed an MIC of less than 2 µg/mL.
With `CC(C)(C)[C@H](NC(=O)[C@H](CC1CCCC1)CN(O)C=O)C(=O)c1ccc(N2CCC[C@H]2CO)cc1` the MIC was less than 2 µg/mL.
Compound `CC(C)(C)[C@H](NC(=O)[C@H](CC1CCCC1)CN(O)C=O)C(=O)c1cc(F)c(F)cc1N1CCN(CCO)CC1` has an MIC of less than 2 µg/mL.

Each compound was assayed on Haemophilus influenzae (assay: Minimum inhibitory concentration required for primary screening against in-house strain of Haemophilus influenzae tested in vitro; Range- 0.5-2).
Type: functional
Compound `CC(C)(C)[C@H](NC(=O)[C@H](CC1CCCC1)CN(O)C=O)C(=O)c1ccc(N2CCN(CCN3CCOCC3)CC2)cc1` has an MIC of less than 2 µg/mL.
In the case of `CC(C)(C)[C@H](NC(=O)[C@H](CC1CCCC1)CN(O)C=O)C(=O)c1ccc(N2CCN(CCN3CCCC3)CC2)cc1`, the MIC is reported as less than 2 µg/mL.

What follows are compounds tested on Haemophilus influenzae (assay: Minimum inhibitory concentration required for primary screening against in-house strain of Haemophilus influenzae tested in vitro; Range- 2-4).
Type: functional
Work on `CC(C)(C)[C@H](NC(=O)[C@H](CC1CCCC1)CN(O)C=O)C(=O)c1cc(F)c(F)cc1N1CCN(CCN2CCOCC2)CC1` yielded an MIC of less than 4 µg/mL.

Each compound was assayed on Streptococcus pneumoniae (assay: Minimum inhibitory concentration required for primary screening against in-house strain of Streptococcus pneumoniae tested in vitro; Range- 0.25-2).
Type: functional
For `CC(C)(C)[C@H](NC(=O)[C@H](CC1CCCC1)CN(O)C=O)C(=O)c1ccc(N2CCOCC2)cc1`, the MIC90 was less than 2 µg/mL.

What follows are compounds tested on Streptococcus pneumoniae (assay: Minimum inhibitory concentration required for primary screening against in-house strain of Streptococcus pneumoniae tested in vitro; Range- 0.25-0.5).
`CC(C)(C)[C@H](NC(=O)[C@H](CC1CCCC1)CN(O)C=O)C(=O)c1ccc(N2CCN(CCN3CCCC3)CC2)cc1` gave an MIC of less than 0.5 µg/mL.

These compounds were tested on Haemophilus influenzae (assay: Minimum inhibitory concentration required for primary screening against in-house strain of Haemophilus influenzae tested in vitro; Range- 0.5-8).
Type: functional
`CC(C)(C)[C@H](NC(=O)[C@H](CC1CCCC1)CN(O)C=O)C(=O)c1ccc(N2CCN(CCN3CCCC3)CC2)c(F)c1` gave an MIC of less than 8 µg/mL.

What follows are compounds tested on Streptococcus pneumoniae (assay: Minimum inhibitory concentration required for primary screening against in-house strain of Streptococcus pneumoniae tested in vitro; Range- 0.25-1).
Type: functional
With `CC(C)(C)[C@H](NC(=O)[C@H](CC1CCCC1)CN(O)C=O)C(=O)c1cc(F)c(F)cc1N1CCN(CCN2CCOCC2)CC1` the MIC was less than 1 µg/mL.

Each compound was assayed on Escherichia coli (assay: Minimum inhibitory concentration required for primary screening against in-house strain of Escherichia coli tested in vitro).
Type: functional
In the case of `CC(C)(C)[C@H](NC(=O)[C@H](CC1CCCC1)CN(O)C=O)C(=O)c1ccc(N2CCOCC2)cc1`, the MIC is reported as 12.5 µM (≈ 5.92 µg/mL).

The compounds below were run on Moraxella catarrhalis (assay: Minimum inhibitory concentration required for primary screening against in-house strain of Moraxella catarrhalis tested in vitro; Range- 0.015-0.12).
Type: functional
Compound `CC(C)(C)[C@H](NC(=O)[C@H](CC1CCCC1)CN(O)C=O)C(=O)c1ccc(N2CCOCC2)cc1` has an MIC90 of 0.12 µg/mL (≈ 0.253 µM).

These compounds were tested on Streptococcus pneumoniae (assay: Minimum inhibitory concentration required for primary screening against in-house strain of Streptococcus pneumoniae tested in vitro; Range- <0.125-0.25).
Type: functional
In the case of `CC(C)(C)[C@H](NC(=O)[C@H](CC1CCCC1)CN(O)C=O)C(=O)c1ccc(N2CCC[C@H]2CO)cc1`, the MIC is reported as less than 0.25 µg/mL.

These compounds were tested on Haemophilus influenzae (assay: Minimum inhibitory concentration required for primary screening against in-house strain of Haemophilus influenzae tested in vitro; Range-0.125-2).
Type: functional
With `CC(C)(C)[C@H](NC(=O)[C@H](CC1CCCC1)CN(O)C=O)C(=O)c1ccc(N2CCN(CCO)CC2)c(F)c1` the MIC was less than 2 µg/mL.

What follows are compounds tested against T1, Peptide deformylase (Escherichia coli, UniProt Q9JN24) (assay: Inhibitory activity against Escherichia coli peptide deformylase (PDF) Nickel containing enzyme).
T1 sequence (Q9JN24 whole entry): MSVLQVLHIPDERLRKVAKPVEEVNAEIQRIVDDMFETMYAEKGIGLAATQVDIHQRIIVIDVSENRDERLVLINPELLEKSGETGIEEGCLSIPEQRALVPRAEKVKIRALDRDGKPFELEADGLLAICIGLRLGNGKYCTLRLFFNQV
With `CC(C)(C)[C@H](NC(=O)[C@H](CC1CCCC1)CN(O)C=O)C(=O)c1ccc(N2CCN(CCO)CC2)cc1` the IC50 was 2 nM.
Work on `CC(C)(C)[C@H](NC(=O)[C@H](CC1CCCC1)CN(O)C=O)C(=O)c1ccc(N2CCN(CCN3CCCC3)CC2)c(F)c1` yielded an IC50 of 9 nM.
With `CC(C)(C)[C@H](NC(=O)[C@H](CC1CCCC1)CN(O)C=O)C(=O)c1cc(F)c(F)cc1N1CCC(O)CC1` the IC50 was 1 nM.
Compound `CC(C)(C)[C@H](NC(=O)[C@H](CC1CCCC1)CN(O)C=O)C(=O)c1ccc(N2CCC[C@H]2CO)cc1` has an IC50 of 7 nM.
`CC(C)(C)[C@H](NC(=O)[C@H](CC1CCCC1)CN(O)C=O)C(=O)c1cc(F)c(F)cc1N1CCN(CCO)CC1` was tested, and the IC50 was 2 nM.
Work on `CC(C)(C)[C@H](NC(=O)[C@H](CC1CCCC1)CN(O)C=O)C(=O)c1ccc(N2CCN(CCN3CCOCC3)CC2)cc1` yielded an IC50 of 2 nM.
`CC(C)(C)[C@H](NC(=O)[C@H](CC1CCCC1)CN(O)C=O)C(=O)c1cc(F)c(F)cc1N1CCN(CCN2CCOCC2)CC1` showed an IC50 of 2 nM.
`CC(C)(C)[C@H](NC(=O)[C@H](CC1CCCC1)CN(O)C=O)C(=O)c1ccc(N2CCOCC2)cc1` was tested, and the IC50 was 6 nM and 2 nM.
Compound `CC(C)(C)[C@H](NC(=O)[C@H](CC1CCCC1)CN(O)C=O)C(=O)c1ccc(N2CCN(CCN3CCCC3)CC2)cc1` has an IC50 of 3 nM.

Each compound was assayed on Haemophilus influenzae (assay: Minimum inhibitory concentration required for primary screening against in-house strain of Haemophilus influenzae tested in vitro; Range- 0.06->/=16).
Type: functional
In the case of `CC(C)(C)[C@H](NC(=O)[C@H](CC1CCCC1)CN(O)C=O)C(=O)c1ccc(N2CCOCC2)cc1`, the MIC90 is reported as 4 µg/mL (≈ 8.45 µM).

What follows are compounds tested on Haemophilus influenzae (assay: Minimum inhibitory concentration required for primary screening against in-house strain of Haemophilus influenzae tested in vitro; Range- 0.5-1).
Type: functional
`CC(C)(C)[C@H](NC(=O)[C@H](CC1CCCC1)CN(O)C=O)C(=O)c1ccc(N2CCOCC2)cc1` showed an MIC of less than 1 µg/mL.

What follows are compounds tested on Streptococcus pneumoniae (assay: Minimum inhibitory concentration required for primary screening against in-house strain of Streptococcus pneumoniae tested in vitro; Range- 0.25-0.5).
Type: functional
`CC(C)(C)[C@H](NC(=O)[C@H](CC1CCCC1)CN(O)C=O)C(=O)c1ccc(N2CCN(CCN3CCCC3)CC2)c(F)c1` was tested, and the MIC was less than 0.5 µg/mL.
With `CC(C)(C)[C@H](NC(=O)[C@H](CC1CCCC1)CN(O)C=O)C(=O)c1cc(F)c(F)cc1N1CCC(O)CC1` the MIC was less than 0.5 µg/mL.
Compound `CC(C)(C)[C@H](NC(=O)[C@H](CC1CCCC1)CN(O)C=O)C(=O)c1ccc(N2CCN(CCN3CCOCC3)CC2)cc1` has an MIC of less than 0.5 µg/mL.
With `CC(C)(C)[C@H](NC(=O)[C@H](CC1CCCC1)CN(O)C=O)C(=O)c1ccc(N2CCOCC2)cc1` the MIC was less than 0.5 µg/mL.

The compounds below were run on Staphylococcus capitis (assay: Minimum inhibitory concentration required for primary screening against in-house strain of Staphylococcus capitis tested in vitro).
Type: functional
With `CC(C)(C)[C@H](NC(=O)[C@H](CC1CCCC1)CN(O)C=O)C(=O)c1ccc(N2CCOCC2)cc1` the MIC was 1.5 µM (≈ 0.71 µg/mL).

Each compound was assayed on Moraxella catarrhalis (assay: Minimum inhibitory concentration required for primary screening against in-house strain of Moraxella catarrhalis tested in vitro; Range- 0.125-0.25).
Type: functional
`CC(C)(C)[C@H](NC(=O)[C@H](CC1CCCC1)CN(O)C=O)C(=O)c1ccc(N2CCN(CCN3CCCC3)CC2)c(F)c1` showed an MIC of less than 0.25 µg/mL.
For `CC(C)(C)[C@H](NC(=O)[C@H](CC1CCCC1)CN(O)C=O)C(=O)c1cc(F)c(F)cc1N1CCN(CCN2CCOCC2)CC1`, the MIC was less than 0.25 µg/mL.
For `CC(C)(C)[C@H](NC(=O)[C@H](CC1CCCC1)CN(O)C=O)C(=O)c1ccc(N2CCN(CCN3CCCC3)CC2)cc1`, the MIC was less than 0.25 µg/mL.

What follows are compounds tested on Streptococcus pneumoniae (assay: Minimum inhibitory concentration required for primary screening against in-house strain of Streptococcus pneumoniae tested in vitro; Range- 1-2).
Type: functional
Compound `CC(C)(C)[C@H](NC(=O)[C@H](CC1CCCC1)CN(O)C=O)C(=O)c1ccc(N2CCN(CCO)CC2)cc1` has an MIC of less than 2 µg/mL.

The compounds below were run on Moraxella catarrhalis (assay: Minimum inhibitory concentration required for primary screening against in-house strain of Moraxella catarrhalis tested in vitro).
Type: functional
For `CC(C)(C)[C@H](NC(=O)[C@H](CC1CCCC1)CN(O)C=O)C(=O)c1ccc(N2CCN(CCO)CC2)c(F)c1`, the MIC was less than 0.125 µg/mL.
Compound `CC(C)(C)[C@H](NC(=O)[C@H](CC1CCCC1)CN(O)C=O)C(=O)c1ccc(N2CCN(CCO)CC2)cc1` has an MIC of less than 0.125 µg/mL.
Compound `CC(C)(C)[C@H](NC(=O)[C@H](CC1CCCC1)CN(O)C=O)C(=O)c1cc(F)c(F)cc1N1CCC(O)CC1` has an MIC of less than 0.125 µg/mL.
`CC(C)(C)[C@H](NC(=O)[C@H](CC1CCCC1)CN(O)C=O)C(=O)c1ccc(N2CCC[C@H]2CO)cc1` gave an MIC of less than 0.125 µg/mL.
`CC(C)(C)[C@H](NC(=O)[C@H](CC1CCCC1)CN(O)C=O)C(=O)c1cc(F)c(F)cc1N1CCN(CCO)CC1` gave an MIC of less than 0.125 µg/mL.
For `CC(C)(C)[C@H](NC(=O)[C@H](CC1CCCC1)CN(O)C=O)C(=O)c1ccc(N2CCN(CCN3CCOCC3)CC2)cc1`, the MIC was less than 0.125 µg/mL.
Work on `CC(C)(C)[C@H](NC(=O)[C@H](CC1CCCC1)CN(O)C=O)C(=O)c1ccc(N2CCOCC2)cc1` yielded an MIC of 0.125 µg/mL (≈ 0.264 µM).

Source: ChEMBL document CHEMBL1137072, “Peptide deformylase inhibitors with activity against respiratory tract pathogens” (Bioorg Med Chem Lett, 2004)
